Values of other authors in patent US20050129719A1, “Concentrated emulsion formulation for silatecan” (priority 2003, published 2005).

water-solubility: extremely low water-solubility
SMILES: CC[C@@]1(O)C(=O)OCc2c1cc1n(c2=O)Cc2c-1nc1ccc(O)cc1c2[Si](C)(C)C(C)(C)C [Silatecan, 7-t-butyldimethylsilyl-10-hydroxycamptothecin]
